From ChEMBL document CHEMBL1201862, “PubChem BioAssay data set” (2004)
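Cultured in 96-well plates, cells were exposed to test compound for 48 hours across five concentrations. GI50 = concentration required for 50% inhibition of growth.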 Activity calls are given as the source filed them. No stated cut-off is given here; in the data, active = GI50 up to about 1.1 µM and inactive = higher.

Tests used:
Test in all cases: inhibition of tumour cell growth, NCI panel, 48 h
[1] = tested on: CAKI-1
[2] = tested on: OVCAR-5
[3] = tested on: MCF7
[4] = tested on: CCRF-CEM
[5] = tested on: SK-MEL-2
[6] = tested on: SF-539
[7] = tested on: HOP-92
[8] = tested on: TK-10
[9] = tested on: HL-60
[10] = tested on: SF-295
[11] = tested on: SN12C
[12] = tested on: OVCAR-4
[13] = tested on: SR
[14] = tested on: SNB-75
[15] = tested on: RXF 393
[16] = tested on: OVCAR-3
[17] = tested on: A498
[18] = tested on: MDA-N
[19] = tested on: MDA-MB-435

CC(C)(C)CNC(=O)NCn1cc(-c2ccccc2)nn1
GI50 [1]: > 100 µM (inactive)
GI50 [2]: > 100 µM (inactive)
GI50 [3]: > 100 µM (inactive)
GI50 [4]: > 100 µM (inactive)
GI50 [5]: > 100 µM (inactive)
GI50 [6]: > 100 µM (inactive)
GI50 [7]: > 100 µM (inactive)
GI50 [8]: > 100 µM (inactive)
GI50 [9]: > 100 µM (inactive)
GI50 [10]: > 100 µM (inactive)
GI50 [11]: > 100 µM (inactive)
GI50 [12]: > 10 µM (inactive)
GI50 [13]: > 100 µM (inactive)

Cc1cc(C)nc(NS(=O)(=O)c2ccc(Nc3c4ccc(Cl)cc4nc4c(C(=O)NCCN(C)C)cccc34)cc2)n1
GI50 [14]: > 100 µM (inactive)
GI50 [15]: > 100 µM (inactive)
GI50 [1]: > 100 µM (inactive)
GI50 [2]: > 100 µM (inactive)
GI50 [16]: > 100 µM (inactive)
GI50 [17]: > 100 µM (inactive)
GI50 [4]: > 100 µM (inactive)
GI50 [6]: > 100 µM (inactive)
GI50 [7]: 78 µM (inactive)
GI50 [8]: > 100 µM (inactive)
GI50 [9]: > 100 µM (inactive)
GI50 [10]: > 100 µM (inactive)
GI50 [11]: > 100 µM (inactive)
GI50 [12]: > 100 µM (inactive)
GI50 [13]: 55.7 µM (inactive)

O=c1[nH]n(Cc2ccccc2Cl)c2ccccc12
GI50 [14]: 45.5 µM (inactive)
GI50 [15]: > 10 µM (inactive)
GI50 [1]: > 100 µM (inactive)
GI50 [2]: > 100 µM (inactive)
GI50 [16]: 73.1 µM (inactive)
GI50 [17]: > 100 µM (inactive)
GI50 [4]: > 100 µM (inactive)
GI50 [5]: > 100 µM (inactive)
GI50 [6]: > 100 µM (inactive)
GI50 [7]: 62.4 µM (inactive)
GI50 [8]: > 100 µM (inactive)
GI50 [18]: > 100 µM (inactive)
GI50 [9]: > 100 µM (inactive)
GI50 [11]: > 100 µM (inactive)
GI50 [12]: > 100 µM (inactive)
GI50 [19]: > 100 µM (inactive)
GI50 [13]: > 100 µM (inactive)

CN(C)CCNC(=O)c1ccc(C(=O)NCCN(C)C)c2nc3ccccc3cc12
GI50 [14]: 1.71 µM (inactive)
GI50 [15]: 0.762 µM (active)
GI50 [1]: 1.48 µM (inactive)
GI50 [2]: 1.22 µM (inactive)
GI50 [16]: 1.77 µM (inactive)
GI50 [17]: 1.15 µM (inactive)
GI50 [4]: 0.676 µM (active)
GI50 [5]: 1.28 µM (inactive)
GI50 [6]: 0.378 µM (active)
GI50 [7]: 1.41 µM (inactive)
GI50 [8]: 0.94 µM (active)
GI50 [9]: 0.826 µM (active)
GI50 [10]: 0.895 µM (active)
GI50 [11]: 0.83 µM (active)
GI50 [12]: 0.697 µM (active)
GI50 [13]: 0.399 µM (active)

S=C(c1c[nH]c2ccccc12)N1CCN(Cc2ccccc2)CC1
GI50 [14]: 15.5 µM (inactive)
GI50 [15]: 16.1 µM (inactive)
GI50 [1]: 20.1 µM (inactive)
GI50 [2]: 16.2 µM (inactive)
GI50 [3]: 22.2 µM (inactive)
GI50 [16]: 14.4 µM (inactive)
GI50 [17]: 19.2 µM (inactive)
GI50 [4]: 27.2 µM (inactive)
GI50 [5]: 18.9 µM (inactive)
GI50 [6]: 18.6 µM (inactive)
GI50 [8]: 26.4 µM (inactive)
GI50 [18]: 15.6 µM (inactive)
GI50 [9]: 18.5 µM (inactive)
GI50 [10]: 14.8 µM (inactive)
GI50 [11]: 16.5 µM (inactive)
GI50 [19]: 15.5 µM (inactive)
GI50 [13]: 20.2 µM (inactive)

C=C[C@@H]1OC(=O)O[C@H]1CO
GI50 [14]: > 100 µM (inactive)
GI50 [2]: > 100 µM (inactive)
GI50 [3]: > 100 µM (inactive)
GI50 [16]: > 100 µM (inactive)
GI50 [17]: > 100 µM (inactive)
GI50 [4]: > 100 µM (inactive)
GI50 [5]: > 100 µM (inactive)
GI50 [8]: > 100 µM (inactive)
GI50 [18]: > 100 µM (inactive)
GI50 [10]: > 100 µM (inactive)
GI50 [11]: > 100 µM (inactive)
GI50 [12]: > 100 µM (inactive)
GI50 [19]: > 100 µM (inactive)
GI50 [13]: > 100 µM (inactive)
